Literature values as cited in patent US10105415B2, “Compositions comprising granulocyte-macrophage colony-stimulating factor for the treatment of inflammatory bowel disease” (priority 2014, dated 2018).

Columns and labels:
[1] = adverse effect frequency
Pseudomonas aeruginosa = settings: controlled clinical trials
[2] = test system: strains of organisms from the susceptible genera
[3] = test system: polymorphonuclear leukocytes
[4] = test system: resistant bacterial strains; settings: controlled clinical trials, oral or intravenous
[5] = not given; remark: listed apart in the source
[6] = given orally
[7] = oral / local
Crohn's disease = settings: systemic (intravenous or subcutaneous), CD patients
[8] = given subcutaneously or infused intravenously for systemic effect

Row | Compound | pH of 5% solution | solubility in water [5] | bioavailability [6] | tolerability / irritation [7] | also measured
1 | C[C@@H]1O[C@@H]1P(=O)(O)O [Fosfomycin, [(2R,3S)-3-methyloxiran-2-yl]phosphonic acid] |  |  |  |  | eosinophilia [1]: 0.2%; transient rashes (evidence of allergy) [1]: 0.3 % of cases; transiently raised liver enzymes [1]: 0.3 % of cases; appearance of resistant bacterial strains, maximum (Pseudomonas aeruginosa): ≤ 15%; synergistic effect, share of tested strains ([2]; early studies, various antibiotic combinations): 70-100%; synergy rates ([2]; subsequent more extensive studies): 36-74%; concentration in polymorphonuclear leukocytes relative to extracellular fluid [3]: twice; appearance of resistant bacterial strains, overall [4]: 3.0%
2 | C[C@@H]1O[C@@H]1P(=O)(O)O.NC(CO)(CO)CO [Fosfomycin trometamol] | 3.5-5.5 | highly soluble in water | about 40% | well tolerated | 
3 | C[C@@H]1O[C@@H]1P(=O)(O)O [Fosfomycin disodium] | 9.0-10.5 | highly soluble in water | high bioavailability | locally irritant if un-neutralized | 
4 | GM-CSF: Monomeric glycoprotein of 127 amino-acid residues (SEQ ID NO: 2), colony-stimulating factor; recombinant forms regramostim, sargramostim, molgramostim |  |  |  |  | primary therapeutic endpoints (Crohn's disease): failed to achieve their primary therapeutic endpoints; plasma concentrations achieved [8]: > 1 ng/mL
5 | C[C@@H]1O[C@@H]1P(=O)(O)O [Fosfomycin calcium monohydrate] |  | sparingly soluble in water | ≥ 12% | less irritating to the stomach | pH of 0.4% solution (0.4% solution): 8.1-9.6
